The test system of the assay is IAV infection of macrophages / influenza binding to SP-R210. The class given is cell-based, influenza A virus.

For “SP-A: human surfactant protein A isolated from therapeutic lung lavage of alveolar proteinosis patients”, the “competition with influenza virus for binding to the receptor SP-R210” value is “competitively inhibits binding of the influenza virus to the receptor”.
On to “desialylated SP-A: desialylated surfactant protein A”, for which the “competition with influenza virus for binding to the receptor SP-R210” value was “compete for influenza binding to the same receptor”. Moreover, where the note is “flow cytometry”, the “block of infection of macrophages with IAV” value is “blocks infection of macrophages with IAV”.

These data come from patent US10077309B2, “Compositions and methods for targeting of the surfactant protein A receptor” (The Penn State Research Foundation, priority 2014, dated 2018).
